# From ChEMBL document CHEMBL4152326 (2018)
# Tested on: Pseudomonas aeruginosa
# Experiment: Antimicrobial activity against Pseudomonas aeruginosa SR24 in presence of human apo-transferrin by broth microdilution method
# Type: functional
row,SMILES,MIC [µg/mL]
1,CC(C)(O/N=C(\C(=O)N[C@@H]1C(=O)N2C(C(=O)[O-])=C(C[N+]34CCC(CNC(=O)c5ccc(O)c(O)c5Cl)(CC3)CC4)CS[C@H]12)c1csc(N)n1)C(=O)O,0.25
2,CC(C)(O/N=C(\C(=O)N[C@@H]1C(=O)N2C(C(=O)[O-])=C(C[N+](C)(C)[C@@H]3CCN(C(=O)c4ccc(O)c(O)c4Cl)C3)CS[C@H]12)c1csc(N)n1)C(=O)O,0.25
3,CC(C)(O/N=C(\C(=O)N[C@@H]1C(=O)N2C(C(=O)[O-])=C(C[n+]3cc(NC(=O)c4ccc(O)c(O)c4Cl)c4n3CCN4)CS[C@H]12)c1csc(N)n1)C(=O)O,0.25

# Tested on: Pseudomonas aeruginosa
# Experiment: Antimicrobial activity against AmpC overproducing Pseudomonas aeruginosa SR24-12 in presence of human apo-transferrin by broth microdilution method
# Type: functional
row,SMILES,MIC [µg/mL]
1,CC(C)(O/N=C(\C(=O)N[C@@H]1C(=O)N2C(C(=O)[O-])=C(C[N+]34CCC(CNC(=O)c5ccc(O)c(O)c5Cl)(CC3)CC4)CS[C@H]12)c1csc(N)n1)C(=O)O,0.5
2,CC(C)(O/N=C(\C(=O)N[C@@H]1C(=O)N2C(C(=O)[O-])=C(C[N+](C)(C)[C@@H]3CCN(C(=O)c4ccc(O)c(O)c4Cl)C3)CS[C@H]12)c1csc(N)n1)C(=O)O,0.5
3,CC(C)(O/N=C(\C(=O)N[C@@H]1C(=O)N2C(C(=O)[O-])=C(C[n+]3cc(NC(=O)c4ccc(O)c(O)c4Cl)c4n3CCN4)CS[C@H]12)c1csc(N)n1)C(=O)O,0.5

# Tested on: Pseudomonas aeruginosa
# Experiment: Antimicrobial activity against IMP-1 producing Pseudomonas aeruginosa SR27001 in presence of human apo-transferrin by broth microdilution method
# Type: functional
row,SMILES,MIC [µg/mL]
1,CC(C)(O/N=C(\C(=O)N[C@@H]1C(=O)N2C(C(=O)[O-])=C(C[N+]34CCC(CNC(=O)c5ccc(O)c(O)c5Cl)(CC3)CC4)CS[C@H]12)c1csc(N)n1)C(=O)O,2
2,CC(C)(O/N=C(\C(=O)N[C@@H]1C(=O)N2C(C(=O)[O-])=C(C[N+](C)(C)[C@@H]3CCN(C(=O)c4ccc(O)c(O)c4Cl)C3)CS[C@H]12)c1csc(N)n1)C(=O)O,2
3,CC(C)(O/N=C(\C(=O)N[C@@H]1C(=O)N2C(C(=O)[O-])=C(C[n+]3cc(NC(=O)c4ccc(O)c(O)c4Cl)c4n3CCN4)CS[C@H]12)c1csc(N)n1)C(=O)O,16

# Tested on: Pseudomonas aeruginosa
# Experiment: Antimicrobial activity against VIM-2 producing Pseudomonas aeruginosa SBRKM-28 in presence of human apo-transferrin by broth microdilution method
# Type: functional
row,SMILES,MIC [µg/mL]
1,CC(C)(O/N=C(\C(=O)N[C@@H]1C(=O)N2C(C(=O)[O-])=C(C[N+]34CCC(CNC(=O)c5ccc(O)c(O)c5Cl)(CC3)CC4)CS[C@H]12)c1csc(N)n1)C(=O)O,0.125
2,CC(C)(O/N=C(\C(=O)N[C@@H]1C(=O)N2C(C(=O)[O-])=C(C[N+](C)(C)[C@@H]3CCN(C(=O)c4ccc(O)c(O)c4Cl)C3)CS[C@H]12)c1csc(N)n1)C(=O)O,0.25
3,CC(C)(O/N=C(\C(=O)N[C@@H]1C(=O)N2C(C(=O)[O-])=C(C[n+]3cc(NC(=O)c4ccc(O)c(O)c4Cl)c4n3CCN4)CS[C@H]12)c1csc(N)n1)C(=O)O,0.5

# Tested on: Pseudomonas aeruginosa
# Experiment: Antimicrobial activity against IMP-1 producing Pseudomonas aeruginosa SR27060 in presence of human apo-transferrin by broth microdilution method
# Type: functional
row,SMILES,MIC [µg/mL]
1,CC(C)(O/N=C(\C(=O)N[C@@H]1C(=O)N2C(C(=O)[O-])=C(C[N+]34CCC(CNC(=O)c5ccc(O)c(O)c5Cl)(CC3)CC4)CS[C@H]12)c1csc(N)n1)C(=O)O,4
2,CC(C)(O/N=C(\C(=O)N[C@@H]1C(=O)N2C(C(=O)[O-])=C(C[N+](C)(C)[C@@H]3CCN(C(=O)c4ccc(O)c(O)c4Cl)C3)CS[C@H]12)c1csc(N)n1)C(=O)O,2
3,CC(C)(O/N=C(\C(=O)N[C@@H]1C(=O)N2C(C(=O)[O-])=C(C[n+]3cc(NC(=O)c4ccc(O)c(O)c4Cl)c4n3CCN4)CS[C@H]12)c1csc(N)n1)C(=O)O,16

# Tested on: Pseudomonas aeruginosa
# Experiment: Antimicrobial activity against Pseudomonas aeruginosa 27060deltaR1 harboring deletion of R1 plasmid in presence of human apo-transferrin by broth microdilution method
# Type: functional
row,SMILES,MIC [µg/mL]
1,CC(C)(O/N=C(\C(=O)N[C@@H]1C(=O)N2C(C(=O)[O-])=C(C[N+]34CCC(CNC(=O)c5ccc(O)c(O)c5Cl)(CC3)CC4)CS[C@H]12)c1csc(N)n1)C(=O)O,1
2,CC(C)(O/N=C(\C(=O)N[C@@H]1C(=O)N2C(C(=O)[O-])=C(C[N+](C)(C)[C@@H]3CCN(C(=O)c4ccc(O)c(O)c4Cl)C3)CS[C@H]12)c1csc(N)n1)C(=O)O,1
3,CC(C)(O/N=C(\C(=O)N[C@@H]1C(=O)N2C(C(=O)[O-])=C(C[n+]3cc(NC(=O)c4ccc(O)c(O)c4Cl)c4n3CCN4)CS[C@H]12)c1csc(N)n1)C(=O)O,0.5

# Tested on: Stenotrophomonas maltophilia
# Experiment: Antimicrobial activity against L-1 producing Stenotrophomonas maltophilia SR21970 in presence of human apo-transferrin by broth microdilution method
# Type: functional
row,SMILES,MIC [µg/mL]
1,CC(C)(O/N=C(\C(=O)N[C@@H]1C(=O)N2C(C(=O)[O-])=C(C[N+]34CCC(CNC(=O)c5ccc(O)c(O)c5Cl)(CC3)CC4)CS[C@H]12)c1csc(N)n1)C(=O)O,0.25
2,CC(C)(O/N=C(\C(=O)N[C@@H]1C(=O)N2C(C(=O)[O-])=C(C[N+](C)(C)[C@@H]3CCN(C(=O)c4ccc(O)c(O)c4Cl)C3)CS[C@H]12)c1csc(N)n1)C(=O)O,1
3,CC(C)(O/N=C(\C(=O)N[C@@H]1C(=O)N2C(C(=O)[O-])=C(C[n+]3cc(NC(=O)c4ccc(O)c(O)c4Cl)c4n3CCN4)CS[C@H]12)c1csc(N)n1)C(=O)O,> 16

# Tested on: Acinetobacter baumannii
# Experiment: Antimicrobial activity against OXA-23/OXA-58 producing Acinetobacter baumannii SR27323 in presence of human apo-transferrin by broth microdilution method
# Type: functional
row,SMILES,MIC [µg/mL]
1,CC(C)(O/N=C(\C(=O)N[C@@H]1C(=O)N2C(C(=O)[O-])=C(C[N+]34CCC(CNC(=O)c5ccc(O)c(O)c5Cl)(CC3)CC4)CS[C@H]12)c1csc(N)n1)C(=O)O,1
2,CC(C)(O/N=C(\C(=O)N[C@@H]1C(=O)N2C(C(=O)[O-])=C(C[N+](C)(C)[C@@H]3CCN(C(=O)c4ccc(O)c(O)c4Cl)C3)CS[C@H]12)c1csc(N)n1)C(=O)O,1
3,CC(C)(O/N=C(\C(=O)N[C@@H]1C(=O)N2C(C(=O)[O-])=C(C[n+]3cc(NC(=O)c4ccc(O)c(O)c4Cl)c4n3CCN4)CS[C@H]12)c1csc(N)n1)C(=O)O,0.5

# Tested on: Klebsiella pneumoniae
# Experiment: Antimicrobial activity against KPC-2 producing Klebsiella pneumoniae ATCC BAA-1705 in presence of human apo-transferrin by broth microdilution method
# Type: functional
row,SMILES,MIC [µg/mL]
1,CC(C)(O/N=C(\C(=O)N[C@@H]1C(=O)N2C(C(=O)[O-])=C(C[N+]34CCC(CNC(=O)c5ccc(O)c(O)c5Cl)(CC3)CC4)CS[C@H]12)c1csc(N)n1)C(=O)O,0.063
2,CC(C)(O/N=C(\C(=O)N[C@@H]1C(=O)N2C(C(=O)[O-])=C(C[N+](C)(C)[C@@H]3CCN(C(=O)c4ccc(O)c(O)c4Cl)C3)CS[C@H]12)c1csc(N)n1)C(=O)O,0.25
3,CC(C)(O/N=C(\C(=O)N[C@@H]1C(=O)N2C(C(=O)[O-])=C(C[n+]3cc(NC(=O)c4ccc(O)c(O)c4Cl)c4n3CCN4)CS[C@H]12)c1csc(N)n1)C(=O)O,0.125

# Tested on: Escherichia coli
# Experiment: Antimicrobial activity against SHV-4 producing Escherichia coli ATCC BAA-200 in presence of human apo-transferrin by broth microdilution method
# Type: functional
row,SMILES,MIC [µg/mL]
1,CC(C)(O/N=C(\C(=O)N[C@@H]1C(=O)N2C(C(=O)[O-])=C(C[N+]34CCC(CNC(=O)c5ccc(O)c(O)c5Cl)(CC3)CC4)CS[C@H]12)c1csc(N)n1)C(=O)O,2
2,CC(C)(O/N=C(\C(=O)N[C@@H]1C(=O)N2C(C(=O)[O-])=C(C[N+](C)(C)[C@@H]3CCN(C(=O)c4ccc(O)c(O)c4Cl)C3)CS[C@H]12)c1csc(N)n1)C(=O)O,2
3,CC(C)(O/N=C(\C(=O)N[C@@H]1C(=O)N2C(C(=O)[O-])=C(C[n+]3cc(NC(=O)c4ccc(O)c(O)c4Cl)c4n3CCN4)CS[C@H]12)c1csc(N)n1)C(=O)O,1

# Tested on: Pseudomonas aeruginosa
# Experiment: Antibacterial activity against Pseudomonas aeruginosa SR27001 infected in Jcl:ICR mouse systemic infection model assessed as increase in mouse survival rate administered iv 1 to 5 hrs post infection measured over 7 days
# Type: functional
row,SMILES,ED50 [mg/kg]
1,CC(C)(O/N=C(\C(=O)N[C@@H]1C(=O)N2C(C(=O)[O-])=C(C[N+]34CCC(CNC(=O)c5ccc(O)c(O)c5Cl)(CC3)CC4)CS[C@H]12)c1csc(N)n1)C(=O)O,9.42
2,CC(C)(O/N=C(\C(=O)N[C@@H]1C(=O)N2C(C(=O)[O-])=C(C[N+](C)(C)[C@@H]3CCN(C(=O)c4ccc(O)c(O)c4Cl)C3)CS[C@H]12)c1csc(N)n1)C(=O)O,5.48
